Common to all, as to format: functional
Assay [1] has as its target T1, DNA repair and recombination protein RAD54-like (Homo sapiens, UniProt Q92698).
T1 sequence (Q92698 whole entry): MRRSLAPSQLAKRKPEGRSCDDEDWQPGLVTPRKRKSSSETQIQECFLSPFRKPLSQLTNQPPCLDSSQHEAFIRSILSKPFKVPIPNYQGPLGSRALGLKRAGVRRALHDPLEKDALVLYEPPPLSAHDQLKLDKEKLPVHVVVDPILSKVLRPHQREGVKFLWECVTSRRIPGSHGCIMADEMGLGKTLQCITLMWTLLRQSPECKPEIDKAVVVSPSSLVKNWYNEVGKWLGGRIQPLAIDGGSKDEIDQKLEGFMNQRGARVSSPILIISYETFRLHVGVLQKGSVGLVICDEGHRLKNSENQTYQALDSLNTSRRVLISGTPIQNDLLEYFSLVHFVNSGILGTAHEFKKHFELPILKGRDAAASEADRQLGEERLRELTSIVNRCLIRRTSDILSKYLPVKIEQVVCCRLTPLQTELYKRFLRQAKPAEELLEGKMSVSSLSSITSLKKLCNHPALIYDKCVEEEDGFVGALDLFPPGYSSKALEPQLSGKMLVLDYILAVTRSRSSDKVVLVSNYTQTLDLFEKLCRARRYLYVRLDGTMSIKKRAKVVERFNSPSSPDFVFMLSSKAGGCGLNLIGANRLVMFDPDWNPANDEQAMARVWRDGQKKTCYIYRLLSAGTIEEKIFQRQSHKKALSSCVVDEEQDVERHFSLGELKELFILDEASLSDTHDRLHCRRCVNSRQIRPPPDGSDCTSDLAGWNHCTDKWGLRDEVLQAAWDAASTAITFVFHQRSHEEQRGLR
Nature of the assay: RAD54 Holliday junction migration blockers – biochemical, fluorescence, cherry-picked samples, dose series, confirmation (AID 651657).

A further assay concerns Vero. Nature of the assay: viability loss in Vero cells – cell-based, plate reader, cherry-pick samples, cytotoxicity control, dose response (AID 687020). To be noted: Chlorocebus sabaeus.
In assay [2] the target is T2, Beta-2 adrenergic receptor (Homo sapiens, UniProt P07550). Nature of the assay: Dose response for HTS for Beta-2AR agonists via FAP method from Powderset3.
T2 sequence (P07550 whole entry): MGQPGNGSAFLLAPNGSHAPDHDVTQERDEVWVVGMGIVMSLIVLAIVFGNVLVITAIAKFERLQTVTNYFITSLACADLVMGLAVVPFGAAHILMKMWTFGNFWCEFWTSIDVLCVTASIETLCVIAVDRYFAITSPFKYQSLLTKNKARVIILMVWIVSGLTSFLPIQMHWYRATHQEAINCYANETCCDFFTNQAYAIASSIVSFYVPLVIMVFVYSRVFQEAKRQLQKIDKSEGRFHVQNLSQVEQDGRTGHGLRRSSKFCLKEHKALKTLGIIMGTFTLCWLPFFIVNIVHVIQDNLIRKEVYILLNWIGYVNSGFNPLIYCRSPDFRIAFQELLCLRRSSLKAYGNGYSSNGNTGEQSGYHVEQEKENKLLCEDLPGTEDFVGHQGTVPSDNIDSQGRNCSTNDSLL
Assay [3] is described as follows: Counterscreen for IDE inhibitors: Luminescence-based cell-based high throughput dose response assay to identify compounds that are cytotoxic to HEK cells. [Related pubchem assays: 434962 (Primary screen (IDE inhibitors in singlicate)), 449730 (Counterscreen (Cytotoxicity in triplicate)), 435028 (Confirmation (IDE inhibitors in triplicate)) …. The conditions noted are these: HEK293.

In a further assay the target is T3, Insulin-degrading enzyme (Homo sapiens, UniProt P14735).
T3 sequence (P14735 whole entry): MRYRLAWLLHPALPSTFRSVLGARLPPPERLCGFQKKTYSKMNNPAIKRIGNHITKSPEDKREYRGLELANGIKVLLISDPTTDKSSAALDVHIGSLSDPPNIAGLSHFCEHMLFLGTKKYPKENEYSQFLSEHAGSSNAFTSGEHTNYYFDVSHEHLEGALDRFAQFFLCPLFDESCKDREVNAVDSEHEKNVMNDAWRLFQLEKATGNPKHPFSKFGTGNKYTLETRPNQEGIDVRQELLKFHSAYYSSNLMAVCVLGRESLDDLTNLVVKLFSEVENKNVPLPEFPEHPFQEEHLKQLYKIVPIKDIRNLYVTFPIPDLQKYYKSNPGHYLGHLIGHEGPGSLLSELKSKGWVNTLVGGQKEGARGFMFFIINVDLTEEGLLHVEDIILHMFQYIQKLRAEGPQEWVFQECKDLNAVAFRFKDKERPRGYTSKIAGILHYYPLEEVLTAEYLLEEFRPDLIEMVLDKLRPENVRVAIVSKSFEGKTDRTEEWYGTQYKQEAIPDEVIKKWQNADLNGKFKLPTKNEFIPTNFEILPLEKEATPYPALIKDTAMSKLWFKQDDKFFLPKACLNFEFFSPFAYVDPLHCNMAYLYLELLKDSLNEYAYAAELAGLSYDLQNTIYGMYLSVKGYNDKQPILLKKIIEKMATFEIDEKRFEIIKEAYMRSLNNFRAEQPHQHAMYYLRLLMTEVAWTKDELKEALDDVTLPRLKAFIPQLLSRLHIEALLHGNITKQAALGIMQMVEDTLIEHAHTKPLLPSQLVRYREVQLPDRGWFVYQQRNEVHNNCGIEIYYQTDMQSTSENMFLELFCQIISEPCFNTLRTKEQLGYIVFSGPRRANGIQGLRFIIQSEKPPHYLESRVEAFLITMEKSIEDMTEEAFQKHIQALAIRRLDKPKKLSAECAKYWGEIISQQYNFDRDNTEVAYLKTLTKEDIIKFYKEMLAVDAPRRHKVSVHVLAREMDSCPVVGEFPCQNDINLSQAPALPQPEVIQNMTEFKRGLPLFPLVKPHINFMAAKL
Briefly: Dose Response: Fluorescence polarization-based cell-based high throughput dose response assay for inhibitors of insulin-degrading enzyme (IDE). [Related pubchem assays: 434962 (Primary screen (IDE inhibitors in singlicate)), 449730 (Counterscreen (Cytotoxicity in triplicate)), 435028 (Confirmation (IDE inhibitors in triplicate)), 434984 (Summary …. For orientation: Fluorescence polarisation rises when a labelled molecule tumbles more slowly, as on binding a larger partner.

The target of assay [4] is T2, Beta-2 adrenergic receptor. Nature of the assay: ADRB2 activation measured by internalization – cell-based, FAP fluorogen, flow cytometry, cherry pick 1, dose response (AID 588763). (In general: In flow cytometry, cells or beads pass a laser one at a time.)

Each structure is given as a SMILES string. Active and inactive are the calls of the source.

`Cc1ccc(-c2nc(N3CCN(C)CC3)c3ccccc3n2)cc1`: the AC50 (usually the concentration at which the activity in the assay is half-maximal) in assay [1] was 41.3 µM (active); in the assay with Vero, 26.8 µM (active).

Regarding `Clc1cccc(-c2nnc(SCc3nc4ccccc4[nH]3)n2Cc2ccco2)c1`, the EC50 (usually the concentration needed to bring the measured effect to its halfway point) in assay [2] is 8.09 µM (active); in assay [4], 10.1 µM (inactive). Moreover, the IC50 (in general, the midpoint of a concentration-inhibition curve) was 22.4 µM (not active) in assay [3] and 2.57 µM (active) at Insulin-degrading enzyme.

The values are drawn from ChEMBL document CHEMBL1201862, “PubChem BioAssay data set” (2004).
